Patent US20240190880A1 (THE REGENTS OF THE UNIVERSITY OF MICHIGAN, priority 2021, published 2024)

Each compound was assayed against T1, ER (Homo sapiens, UniProt P03372) (assay: ER degradation activity, in-cell western blot analysis in T47D cells). Conditions: 16 hours, Table A does not say which cell line (T47D or MCF7), read-out: Potency (DC50).
T1 construct: host or cells: T47D and MCF7 human breast cancer cells
T1 sequence (P03372 1-595): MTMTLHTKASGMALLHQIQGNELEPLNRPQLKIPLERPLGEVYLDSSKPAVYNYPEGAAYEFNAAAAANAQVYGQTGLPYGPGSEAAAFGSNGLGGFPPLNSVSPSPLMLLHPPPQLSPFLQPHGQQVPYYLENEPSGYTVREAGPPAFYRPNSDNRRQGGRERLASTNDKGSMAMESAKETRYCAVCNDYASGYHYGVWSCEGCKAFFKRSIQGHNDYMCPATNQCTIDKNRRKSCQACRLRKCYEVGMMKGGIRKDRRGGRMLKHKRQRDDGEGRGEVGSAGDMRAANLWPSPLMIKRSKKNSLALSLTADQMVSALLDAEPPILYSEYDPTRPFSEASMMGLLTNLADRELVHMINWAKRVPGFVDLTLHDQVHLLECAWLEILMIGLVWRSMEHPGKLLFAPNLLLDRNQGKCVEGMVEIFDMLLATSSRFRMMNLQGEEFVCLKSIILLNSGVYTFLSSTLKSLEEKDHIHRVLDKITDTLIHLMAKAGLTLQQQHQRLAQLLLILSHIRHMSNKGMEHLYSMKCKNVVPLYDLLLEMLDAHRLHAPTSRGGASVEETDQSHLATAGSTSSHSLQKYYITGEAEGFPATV
Type: cell-based
Procedure, shortened: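 Human T47D cells (DMEM, 10% FBS) are dosed for 16 h with 0.5% DMSO final and probed with 680- and 800-dye secondary antibodies. Relative ER is calculated against vehicle and untreated wells.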

Structure (SMILES) | DC50
O=C1CCC(N2C(=O)c3cc4c(cc3C2=O)CN(CC2CN(CC3CCN(c5ccc([C@@H]6c7ccc(O)cc7CC[C@@H]6c6ccc(F)cc6)cc5)CC3)C2)C4)C(=O)N1 (stereo partly drawn) [E 274, 2-(2,6-dioxopiperidin-3-yl)-6-((1-((1-(4-((1R,2S)-2-(4-fluorophenyl)-6-hydroxy-1,2,3,4-tetrahydronaphthalen-1-yl)phenyl)piperidin-4-yl)methyl)azetidin-3-yl)methyl)-6,7-dihydropyrrolo[3,4-f]isoindole-1,3(2H,5H)-dione] | > 100 nM
O=C1CCC(N2Cc3cc4c(cc3C2=O)CN(C2CCN(CC3CCN(c5ccc([C@@H]6c7ccc(O)cc7CC[C@@H]6c6ccc(F)cc6)cc5)CC3)CC2)C4)C(=O)N1 (stereo partly drawn) [E 275, 3-(6-(1-((1-(4-((1R,2S)-2-(4-fluorophenyl)-6-hydroxy-1,2,3,4-tetrahydronaphthalen-1-yl)phenyl)piperidin-4-yl)methyl)piperidin-4-yl)-1-oxo-3,5,6,7-tetrahydropyrrolo[3,4-f]isoindol-2(1H)-yl)piperidine-2,6-dione] | < 10 nM
O=C1CCC(N2C(=O)c3cc4c(cc3C2=O)CN(C2CCN(CC3CN(c5ccc([C@H]6c7ccc(O)cc7CC[C@H]6c6ccc(F)cc6)cc5)C3)CC2)C4)C(=O)N1 (stereo partly drawn) [E 276, 2-(2,6-dioxopiperidin-3-yl)-6-(1-((1-(4-((1S,2R)-2-(4-fluorophenyl)-6-hydroxy-1,2,3,4-tetrahydronaphthalen-1-yl)phenyl)azetidin-3-yl)methyl)piperidin-4-yl)-6,7-dihydropyrrolo[3,4-f]isoindole-1,3(2H,5H)-dione] | > 100 nM
O=C1CCC(N2C(=O)c3cc4c(cc3C2=O)CN(CC2CCN(CC3CN(c5ccc([C@@H]6c7ccc(O)cc7CC[C@@H]6c6ccc(F)cc6)cc5)C3)CC2)C4)C(=O)N1 (stereo partly drawn) [E 277, 2-(2,6-dioxopiperidin-3-yl)-6-((1-((1-(4-((1R,2S)-2-(4-fluorophenyl)-6-hydroxy-1,2,3,4-tetrahydronaphthalen-1-yl)phenyl)azetidin-3-yl)methyl)piperidin-4-yl)methyl)-6,7-dihydropyrrolo[3,4-f]isoindole-1,3(2H,5H)-dione] | > 100 nM
O=C1CCC(N2C(=O)c3cc4c(cc3C2=O)CN(CC2CN(CC3CN(c5ccc([C@@H]6c7ccc(O)cc7CC[C@@H]6c6ccc(F)cc6)cc5)C3)C2)C4)C(=O)N1 (stereo partly drawn) [E 278, 2-(2,6-dioxopiperidin-3-yl)-6-((1-((1-(4-((1R,2S)-2-(4-fluorophenyl)-6-hydroxy-1,2,3,4-tetrahydronaphthalen-1-yl)phenyl)azetidin-3-yl)methyl)azetidin-3-yl)methyl)-6,7-dihydropyrrolo[3,4-f]isoindole-1,3(2H,5H)-dione] | > 100 nM
O=C1CCC(N2Cc3cc4c(cc3C2=O)CN(C2CCN(CC3CN(c5ccc([C@H]6c7ccc(O)cc7CC[C@H]6c6ccc(F)cc6)cc5)C3)CC2)C4)C(=O)N1 (stereo partly drawn) [E 279, 3-(6-(1-((1-(4-((1S,2R)-2-(4-fluorophenyl)-6-hydroxy-1,2,3,4-tetrahydronaphthalen-1-yl)phenyl)azetidin-3-yl)methyl)piperidin-4-yl)-1-oxo-3,5,6,7-tetrahydropyrrolo[3,4-f]isoindol-2(1H)-yl)piperidine-2,6-dione] | 10 to 100 nM
C[C@@H]1Cc2c([nH]c3ccccc23)[C@@H](c2ccc(N3CCC4(CCN(C(=O)CN5Cc6cc7c(cc6C5)C(=O)N(C5CCC(=O)NC5=O)C7=O)CC4)CC3)cn2)N1CC(F)F (stereo partly drawn) [E 280, 6-(2-(9-(6-((1S,3R)-2-(2,2-difluoroethyl)-3-methyl-2,3,4,9-tetrahydro-1H-pyrido[3,4-b]indol-1-yl)pyridin-3-yl)-3,9-diazaspiro[5.5]undecan-3-yl)-2-oxoethyl)-2-(2,6-dioxopiperidin-3-yl)-6,7-dihydropyrrolo[3,4-f]isoindole-1,3(2H,5H)-dione] | > 100 nM
C[C@@H]1Cc2c([nH]c3ccccc23)[C@@H](c2ccc(N3CCC4(CCN(C(=O)CN5Cc6cc7c(cc6C5)C(=O)N(C5CCC(=O)NC5=O)C7=O)CC4)CC3)nc2)N1CC(F)F (stereo partly drawn) [E 281, 6-(2-(9-(5-((1R,3R)-2-(2,2-difluoroethyl)-3-methyl-2,3,4,9-tetrahydro-1H-pyrido[3,4-b]indol-1-yl)pyridin-2-yl)-3,9-diazaspiro[5.5]undecan-3-yl)-2-oxoethyl)-2-(2,6-dioxopiperidin-3-yl)-6,7-dihydropyrrolo[3,4-f]isoindole-1,3(2H,5H)-dione] | 10 to 100 nM
C[C@@H]1Cc2c([nH]c3ccccc23)[C@@H](c2c(F)cc(C3CCC(CN4CCC(N5Cc6cc7c(cc6C5)C(=O)N(C5CCC(=O)NC5=O)C7=O)CC4)CC3)cc2F)N1CC(F)F (stereo partly drawn) [E 282, 6-(1-((4-(4-((1R,3R)-2-(2,2-difluoroethyl)-3-methyl-2,3,4,9-tetrahydro-1H-pyrido[3,4-b]indol-1-yl)-3,5-difluorophenyl)cyclohexyl)methyl)piperidin-4-yl)-2-(2,6-dioxopiperidin-3-yl)-6,7-dihydropyrrolo[3,4-f]isoindole-1,3(2H,5H)-dione] | > 100 nM
C[C@@H]1Cc2c([nH]c3ccccc23)[C@@H](c2c(F)cc(C3CCC(CN4CC(CN5Cc6cc7c(cc6C5)C(=O)N(C5CCC(=O)NC5=O)C7=O)C4)CC3)cc2F)N1CC(F)F (stereo partly drawn) [E 283, 6-((1-((4-(4-((1R,3R)-2-(2,2-difluoroethyl)-3-methyl-2,3,4,9-tetrahydro-1H-pyrido[3,4-b]indol-1-yl)-3,5-difluorophenyl)cyclohexyl)methyl)azetidin-3-yl)methyl)-2-(2,6-dioxopiperidin-3-yl)-6,7-dihydropyrrolo[3,4-f]isoindole-1,3(2H,5H)-dione] | > 100 nM
O=C1CCC(N2Cc3cc4c(cc3C2=O)CN(C(=O)C2CCN(CC3CCN(c5ccc([C@@H]6c7ccc(O)cc7CC[C@@H]6c6ccccc6)cc5)CC3)CC2)C4)C(=O)N1 (stereo partly drawn) [E 284, 3-(6-(1-((1-(4-((1R,2S)-6-hydroxy-2-phenyl-1,2,3,4-tetrahydronaphthalen-1-yl)phenyl)piperidin-4-yl)methyl)piperidine-4-carbonyl)-1-oxo-3,5,6,7-tetrahydropyrrolo[3,4-f]isoindol-2(1H)-yl)piperidine-2,6-dione] | > 100 nM
O=C1CCC(N2C(=O)c3cc4c(cc3C2=O)CN(C2CCN(CC3(F)CN(c5ccc([C@@H]6c7ccc(O)cc7CC[C@@H]6c6ccccc6)cc5)C3)CC2)C4)C(=O)N1 (stereo partly drawn) [E 285, 2-(2,6-dioxopiperidin-3-yl)-6-(1-((3-fluoro-1-(4-((1R,2S)-6-hydroxy-2-phenyl-1,2,3,4-tetrahydronaphthalen-1-yl)phenyl)azetidin-3-yl)methyl)piperidin-4-yl)-6,7-dihydropyrrolo[3,4-f]isoindole-1,3(2H,5H)-dione] | > 100 nM
O=C1CCC(N2C(=O)c3cc4c(cc3C2=O)CN(CC2CCN(CC3(F)CN(c5ccc([C@@H]6c7ccc(O)cc7CC[C@@H]6c6ccccc6)cc5)C3)CC2)C4)C(=O)N1 (stereo partly drawn) [E 286, 2-(2,6-dioxopiperidin-3-yl)-6-((1-((3-fluoro-1-(4-((1R,2S)-6-hydroxy-2-phenyl-1,2,3,4-tetrahydronaphthalen-1-yl)phenyl)azetidin-3-yl)methyl)piperidin-4-yl)methyl)-6,7-dihydropyrrolo[3,4-f]isoindole-1,3(2H,5H)-dione] | > 100 nM
CN(C1CCC(CN2Cc3cc4c(cc3C2)C(=O)N(C2CCC(=O)NC2=O)C4=O)CC1)C1CCN(c2ccc([C@@H]3c4ccc(O)cc4CC[C@@H]3c3ccccc3)cc2)CC1 (stereo partly drawn) [E 289, 2-(2,6-dioxopiperidin-3-yl)-6-((4-((1-(4-((1R,2S)-6-hydroxy-2-phenyl-1,2,3,4-tetrahydronaphthalen-1-yl)phenyl)piperidin-4-yl)(methyl)amino)cyclohexyl)methyl)-6,7-dihydropyrrolo[3,4-f]isoindole-1,3(2H,5H)-dione] | > 100 nM
O=C1CCC(N2C(=O)c3cc4c(cc3C2=O)CN(C2CCC(CN3CCN(c5ccc([C@@H]6c7ccc(O)cc7CC[C@@H]6c6ccccc6)cc5)CC3)CC2)C4)C(=O)N1 (stereo partly drawn) [E 290, 2-(2,6-dioxopiperidin-3-yl)-6-(4-((4-(4-((1R,2S)-6-hydroxy-2-phenyl-1,2,3,4-tetrahydronaphthalen-1-yl)phenyl)piperazin-1-yl)methyl)cyclohexyl)-6,7-dihydropyrrolo[3,4-f]isoindole-1,3(2H,5H)-dione] | 10 to 100 nM
O=C1CCC(N2C(=O)c3cc4c(cc3C2=O)CN(C2CCC(C(=O)N3CCN(c5ccc([C@@H]6c7ccc(O)cc7CC[C@@H]6c6ccccc6)cc5)CC3)CC2)C4)C(=O)N1 (stereo partly drawn) [E 291, 2-(2,6-dioxopiperidin-3-yl)-6-(4-(4-(4-((1R,2S)-6-hydroxy-2-phenyl-1,2,3,4-tetrahydronaphthalen-1-yl)phenyl)piperazine-1-carbonyl)cyclohexyl)-6,7-dihydropyrrolo[3,4-f]isoindole-1,3(2H,5H)-dione] | > 100 nM
C[C@@H]1Cc2c([nH]c3ccccc23)[C@@H](c2ccc(N3CCC4(CCN(CC(=O)N5Cc6cc7c(cc6C5)C(=O)N(C5CCC(=O)NC5=O)C7=O)CC4)CC3)cn2)N1CC(F)F (stereo partly drawn) [E 292, 6-(2-(9-(6-((1S,3R)-2-(2,2-difluoroethyl)-3-methyl-2,3,4,9-tetrahydro-1H-pyrido[3,4-b]indol-1-yl)pyridin-3-yl)-3,9-diazaspiro[5.5]undecan-3-yl)acetyl)-2-(2,6-dioxopiperidin-3-yl)-6,7-dihydropyrrolo[3,4-f]isoindole-1,3(2H,5H)-dione] | > 100 nM
